Experimental data reported in patent publication US20240197927A1, “COMBINATION COMPRISING A NEUROTENSIN RECEPTOR BINDING COMPOUND, GEMCITABINE AND NAB-PACLITAXEL” (Fusion Pharmaceuticals Inc., priority 2021, published 2024).

Key:
[1] = tested on: subcutaneous HT-29 tumors; test: Efficacy study on mice bearing subcutaneous HT-29 tumors (tumor volume); format: in vivo
Procedure: The HT-29 cell line was established from the primary tumor of a patient with colon adenocarcinoma (Fogh J et al., J. Natl. Cancer Inst. 1977 Jul. 59(1): 221-26).
(§1) Tumor cells were grown as monolayer at 37° C. in a humidified atmosphere (5% CO2, 95% air). The culture medium was RPMI 1640 containing 2 mM L-glutamine supplemented with 10% fetal bovine serum. For experimental use, tumor cells were detached from the culture flask using accutase and neutralized by the addition of complete culture medium. The cells were counted, and viability exceeded 85% as assessed by 0.25% trypan blue exclusion assay. Two frozen pellets of HT29 tumor cells were prepared: one frozen cell pellet prepared during the in-vitro cell culture, and one frozen cell pellet prepared using the cell suspension used for tumor induction in mice.
Healthy female Swiss Nude mice (Crl:NU(Ico)-Foxn1nu), 7 weeks old at reception, were obtained from Charles River.
Tumors were induced by subcutaneous injection of 1×10^7 HT29 cells in 200 μL of RPMI 1640 medium containing matrigel (50:50, v:v, ref: 356237, BD Biosciences, France) into the right flank (in the axis of the heart) of 160 animals. HT29 tumor cell implantation was performed 24 hours after a whole-body irradiation with a gamma source (2 Gy (Nude mice), 60Co, BioMep, France). The day of tumor induction was considered as the day −11 (D-11). […]

[2] = tested on: subcutaneous AsPC1 tumors; test: Efficacy study on mice bearing subcutaneous AsPC-1 tumors (tumor volume); format: in vivo
Procedure: The AsPC 1 cell line was isolated from a metastatic site (ascites) from a patient (Chen W H. et al., In Vitro. 1982 Jan; 18(1):24-34).
as §1, with “mice” for “mice.”
Healthy female Swiss Nude mice (Crl:NU(Ico)-Foxn1^nu), 6 weeks old at reception, were obtained from Charles River.
Tumors were induced by subcutaneous injection of 1×10^7 AsPC 1 cells in 200 μL of RPMI 1640 medium containing matrigel (50:50, v:v, ref: 356237, BD Biosciences, France) into the right flank (in the axis of the heart) of 150 animals. AsPC 1 tumor cell implantation was performed 72 hours after whole-body irradiation with a gamma source (2 Gy (Nude mice), 60Co, BioMep, France).
Animals were randomized by individual tumor volume when tumors reach a mean volume of 150-200 mm3. […]

[3] = Toxicity: weight loss of treated mice; format: in vivo; settings: AsPC-1 study mice; combination Groups 2E, 5E, 6E; Gemcitabine/Abraxane Group 3E; ^177Lu-IPN01087 Groups 4E, 7E
Procedure: ^177Lu-IPN01087 and the reference substances were administered by intravenous injection (IV) into the caudal vein via a catheter. The recommended pH formulation for IV administration is pH 4.5-8.0. […]

[4] = target: neurotensin receptor 2 (NTR2) (Homo sapiens, UniProt O95665); settings: unlike NTR1; cited from earlier work
[5] = tested on: metastatic PDAC; settings: patients with metastatic PDAC; p<0.001; cited from earlier work
[6] = tested on: metastatic PDAC; settings: patients with metastatic PDAC, first-line; p<0.001; cited from earlier work
[7] = in combination with gemcitabine and nab-paclitaxel chemotherapy regimen

Sequence of neurotensin receptor 2 (NTR2) (O95665 whole entry, species assumed): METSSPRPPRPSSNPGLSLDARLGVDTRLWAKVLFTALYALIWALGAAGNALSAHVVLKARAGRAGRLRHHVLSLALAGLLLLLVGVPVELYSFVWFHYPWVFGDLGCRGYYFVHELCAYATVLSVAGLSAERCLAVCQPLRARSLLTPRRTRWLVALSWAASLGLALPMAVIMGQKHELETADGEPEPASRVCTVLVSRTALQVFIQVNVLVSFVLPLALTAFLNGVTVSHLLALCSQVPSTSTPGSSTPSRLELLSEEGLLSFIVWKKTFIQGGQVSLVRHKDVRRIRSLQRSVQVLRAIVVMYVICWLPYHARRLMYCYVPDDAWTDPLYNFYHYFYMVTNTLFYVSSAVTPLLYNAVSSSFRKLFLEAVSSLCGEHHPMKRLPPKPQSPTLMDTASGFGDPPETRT

^177Lu-zalsenertant tetraxetan [^177Lu-IPN01087]
overall effect in the HT-29 colon cancer model compared to chemotherapy or radiotherapy regimens alone [1, 7]: improved tumor growth control
HT-29 tumor growth, effect as compared to the vehicles ([1]; single treatments, FIG. 2: Group 3 (GEM-ABX), Group 4 (^177Lu-IPN01087 @17MBq), IV): inhibitory effect on tumor growth
overall effect in the AsPC-1 pancreatic cancer model compared to chemotherapy or radiotherapy regimens alone [2, 7]: prolonged regression
AsPC-1 tumor growth, effect compared to the vehicles ([2]; treatment alone, FIG. 7: Group 3E (GEM-ABX), Group 4E (^177Lu-IPN01087 @19MBq), IV): antitumor effect
mean weight losses [3]: −4% to −10%

C[C@@H]1CN([C@H]2CC[C@](C#N)(c3ccc(F)cc3)CC2)CC[C@]1(C(=O)O)c1ccccc1 [levocabastine]
affinity for NTR2 [4]: high affinity

FOLFIRINOX
ORR [5]: 31.6%
median OS [5]: 11.1 months
median PFS [5]: 6.4 months

Nc1ccn([C@@H]2O[C@H](CO)[C@@H](O)C2(F)F)c(=O)n1 [gemcitabine]
ORR [5]: 9.4%
median OS [5]: 6.8 months
median PFS [5]: 3.3 months
overall response rate (ORR) [6]: 7%
overall survival (OS) [6]: 6.7 months
progression-free survival (PFS) [6]: 3.7 months
